# Laboratory results: patent publication US20020115642A1, “Beta-lactam antibiotics” (priority 2000, published 2002)
# Read-outs that look alike come from different tables or passages of the source.
# Columns and labels:
# [1] = tested on: O=C(Cc1cccs1)N[C@@H]1C(=O)N2C(C(=O)O)=C(/C=C/c3ccc([N+](=O)[O-])cc3[N+](=O)[O-])CS[C@H]12; test: purified protein, by the assay type; settings: other: progress curve analysis at 16 μM Compound (9) and […] TEM-1 β-lactamase, 37° C.
# [2] = tested on: S. aureus clinical isolates; test: MIC by agar dilution, recent clinical isolates (UCSD Medical Center); format: cell-based, Staphylococcus aureus; settings: MSSA (14)
# Description: Growth of all 14 isolates of MSSA was inhibited by Compound (9) at the lowest tested concentration (0.08 μg/ml) (See Table 6, below).
# [3] = tested on: S. aureus clinical isolates; test: as above; format: cell-based, Staphylococcus aureus; settings: MRSA (17)
# E. faecium = test: Susceptibility testing (MIC, modified NCCLS method); format: cell-based, Enterococcus faecium; settings: E. faecium (6)
# Description: (§1) The NCCLS (National Committee for Clinical Laboratory Standards) method to determine MIC's of antimicrobial compounds was modified for high-throughput screening. All stocks of tested compounds were prepared in either water or in dimethylsulfoxide (DMSO), depending on the solubility. […] Briefly 20 2-fold serial dilutions of testing compounds from the highest concentration were made in a 384-well microtiter plate. Each well was inoculated with testing bacteria in broth to a final concentration of approximately 1-1.5×10^6 cells/ml. Bacterial growth was determined by the increase of optical density at 600 nm using a microplate reader (Tecan SpectraFluor Plus).
# Staphylococcus aureus = test: as above; format: cell-based; settings: Staphylococcus aureus
# Description: as §1
# E. coli/TEM-1 = test: as above; format: cell-based, Escherichia coli; settings: Escherichia coli
# Description: as §1
# E. coli N = test: as above; format: cell-based, Escherichia coli; settings: Escherichia coli; E. coli, BLA neg., drug alone; read-out: MIC
# Description: as §1
# S. pneumoniae = test: as above; format: cell-based, Streptococcus pneumoniae; settings: S. pneumoniae (3)
# Description: as §1
# E. aerogenes = test: as above; format: cell-based, Enterobacter aerogenes; settings: E. aerogenes (5)
# Description: as §1
# E. faecalis = test: as above; format: cell-based, Enterococcus faecalis; settings: E. faecalis (7)
# Description: as §1
# K. pneumoniae = test: as above; format: cell-based, Klebsiella pneumoniae; settings: Klebsiella pneumoniae; K. pneumoniae (5); read-out: GM* MIC (geometric mean)
# Description: as §1
# E. cloacae = test: as above; format: cell-based, Enterobacter cloacae; settings: E. cloacae (1)
# Description: as §1
# S. epidermidis = test: as above; format: cell-based, Staphylococcus epidermidis; settings: S. epidermidis (5)
# Description: as §1
compound,measurement,setting,value
TEM-1 β-lactamase (Escherichia coli),Km,[1],15 µM
same,kcat,[1],3.3 s⁻¹
same,kcat/Km,[1],220000 M⁻¹ s⁻¹
"Cc1nnc(SCC2=C(C(=O)O)N3C(=O)[C@@H](NC(=O)Cn4cnnn4)[C@H]3SC2)s1 [Cefazolin, reference compound]",MIC range,[2],0.08 to 0.6 µg/mL
same,MIC50,[2]; Staphylococcus aureus,0.16 µg/mL
same,MIC90,[2]; Staphylococcus aureus,0.3 µg/mL
same,MIC range,[3],5 µg/mL
same,MIC50,[3]; Staphylococcus aureus,> 5 µg/mL
same,MIC90,[3]; Staphylococcus aureus,> 5 µg/mL
"CC(=O)OCC1=C(C(=O)O)N2C(=O)[C@@H](NC(=O)Cc3cccs3)[C@H]2SC1 [Cephalothin, cephalothin, reference compound]",MIC range,E. faecium,>100 µg/mL
same,MIC,"E. faecium; Enterococcus faecium, read-out: GM* MIC (geometric mean)",> 100 µg/mL
same,MIC,"Staphylococcus aureus; ATCC11632, ATCC 11632, methicillin-sensitive, β-lactamase Neg./Pos., read-out: MIC",0.2 µg/mL
same,MIC,"Staphylococcus aureus; ATCC13301, ATCC 13301, methicillin-sensitive, β-lactamase Positive, read-out: MIC",6.25 µg/mL
same,MIC,"Staphylococcus aureus; ATCC14154, ATCC 14154, methicillin-sensitive, β-lactamase Positive, read-out: MIC",0.39 µg/mL
same,MIC,"Staphylococcus aureus; ATCC33591, ATCC 33591, methicillin-resistant, β-lactamase Positive, read-out: MIC",0.56 µg/mL
same,MIC,"Staphylococcus aureus; ATCC33592, ATCC 33592, methicillin-sensitive, β-lactamase Positive, read-out: MIC",1.56 µg/mL
same,MIC,"Staphylococcus aureus; ATCC33593, ATCC 33593, methicillin-resistant, β-lactamase Positive, read-out: MIC",0.78 µg/mL
same,MIC,"Staphylococcus aureus; ATCC33594, ATCC 33594, methicillin-sensitive, β-lactamase Positive, read-out: MIC",0.2 µg/mL
same,MIC,"Staphylococcus aureus; ATCC43300, ATCC 43300, methicillin-sensitive, β-lactamase Neg./Pos., read-out: MIC",0.39 µg/mL
same,MIC,"Staphylococcus aureus; ATCC700260, ATCC 700260, methicillin-sensitive, β-lactamase Positive, read-out: MIC",0.39 µg/mL
same,MIC,"Staphylococcus aureus; ATCC700698, ATCC 700698, methicillin-resistant, β-lactamase Negative, read-out: MIC",100 µg/mL
same,MIC,"Staphylococcus aureus; ATCC700699, ATCC 700699, methicillin-resistant, β-lactamase Negative, read-out: MIC",100 µg/mL
same,MIC,"Staphylococcus aureus; ATCC700787, ATCC 700787, methicillin-resistant, β-lactamase Positive, read-out: MIC",50 µg/mL
same,MIC,"Staphylococcus aureus; ATCC700788, ATCC 700788, methicillin-resistant, β-lactamase Positive, read-out: MIC",3.13 µg/mL
same,MIC,"Staphylococcus aureus; ATCC700789, ATCC 700789, methicillin-resistant, β-lactamase Positive, read-out: MIC",6.25 µg/mL
same,MIC,"Staphylococcus aureus; MRSA, MRSA tested (7), read-out: Geometric mean of MIC",10.2 µg/mL
same,MIC,"Staphylococcus aureus; MSSA, MSSA tested (7), read-out: Geometric mean of MIC",0.58 µg/mL
same,MIC,"Staphylococcus aureus; S. aureus (14), read-out: Geometric mean of MIC",2.45 µg/mL
same,MIC,"Staphylococcus aureus; S. aureus β-lactamase negative (2), read-out: Geometric mean of MIC",100 µg/mL
same,MIC,"Staphylococcus aureus; S. aureus β-lactamase positive (12), read-out: Geometric mean of MIC",1.32 µg/mL
same,MIC,E. coli/TEM-1,> 32 µg/mL
same,MIC,E. coli N,16 µg/mL
same,MIC range,S. pneumoniae,0.06 to 2 µg/mL
same,MIC,"S. pneumoniae; Streptococcus pneumoniae, read-out: GM* MIC (geometric mean)",0.247 µg/mL
same,MIC range,E. aerogenes,>100 µg/mL
same,MIC,"E. aerogenes; Klebsiella aerogenes, read-out: GM* MIC (geometric mean)",> 100 µg/mL
same,MIC range,E. faecalis,25 to 100 µg/mL
same,MIC,"E. faecalis; Enterococcus faecalis, read-out: GM* MIC (geometric mean)",61 µg/mL
same,MIC,K. pneumoniae,> 66 µg/mL
same,MIC range,E. cloacae,>100 µg/mL
same,MIC,"E. cloacae; Enterobacter cloacae, read-out: GM* MIC (geometric mean)",> 100 µg/mL
same,MIC range,S. epidermidis,0.2 to 25 µg/mL
same,MIC,"S. epidermidis; Staphylococcus epidermidis, read-out: GM* MIC (geometric mean)",1.81 µg/mL
